Laboratory results from BindingDB's records for patent WO2025054369 (NICO Therapeutics, 2025).

target: T1, NAD(+) hydrolase SARM1 (Homo sapiens, UniProt Q6SZW1); experiment: Biochemical Assay of the Compounds
T1 sequence (Q6SZW1 whole entry): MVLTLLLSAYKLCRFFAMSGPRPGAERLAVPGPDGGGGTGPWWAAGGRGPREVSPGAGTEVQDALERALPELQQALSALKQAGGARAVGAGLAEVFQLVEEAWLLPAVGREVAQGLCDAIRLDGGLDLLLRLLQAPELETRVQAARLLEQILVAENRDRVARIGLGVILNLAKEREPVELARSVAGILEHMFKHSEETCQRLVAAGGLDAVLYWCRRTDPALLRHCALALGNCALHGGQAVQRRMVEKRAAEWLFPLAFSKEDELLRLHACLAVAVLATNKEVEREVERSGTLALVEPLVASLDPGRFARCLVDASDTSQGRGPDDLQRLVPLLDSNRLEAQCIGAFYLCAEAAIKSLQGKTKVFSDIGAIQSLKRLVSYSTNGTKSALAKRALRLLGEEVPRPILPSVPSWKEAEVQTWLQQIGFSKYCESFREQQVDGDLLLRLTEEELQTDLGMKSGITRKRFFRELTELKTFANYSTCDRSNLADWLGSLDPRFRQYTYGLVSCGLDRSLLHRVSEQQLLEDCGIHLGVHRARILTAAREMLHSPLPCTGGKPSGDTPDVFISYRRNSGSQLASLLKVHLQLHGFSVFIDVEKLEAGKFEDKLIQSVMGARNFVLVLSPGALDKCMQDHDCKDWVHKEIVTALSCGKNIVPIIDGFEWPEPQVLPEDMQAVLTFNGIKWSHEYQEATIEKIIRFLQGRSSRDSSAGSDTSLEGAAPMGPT
Experimental: Preparation of full-length SARM1 (FL-SARM1) lysate: HEK293T cells (ATCC: CRL-3216) were grown on 150 mm TC-treated dishes to 80-90% confluency in complete DMEM (DMEM (Thermo Fisher: 11965175) supplemented with 10% HI-FBS (VWR: 10802-772), 1x Pen/Strep (Thermo Fisher: 15140122), 1x NEAA (Thermo Fisher: 1140050), 1x glutamax (Thermo Fisher: 35050061), and 1 mM sodium pyruvate (Thermo Fisher: 11360070)) at 37 °C and 5% CO2. One hour prior to transfection, the media was replaced with fresh, 37 °C complete DMEM (20 mL per one 150 mm dish) supplemented with additional 10mM glucose (Alfa Aesar AAJ60067EQE). Per one 150 mm dish, 30 µg FL-SARM1 (SEQ. ID.1; cloned in-house) plasmid was dissolved in 1 mL DMEM at ambient temperature and were mixed by inverting the tube 8-10 times.90 µL of GenJet™ in vitro DNA transfection reagent (Ver2) was dissolved in 1 mL DMEM at ambient temperature and were mixed by inverting the tube 8-10 times. The plasmid and transfection agent solutions were combined, mixed by 8-10 inversions and incubated for 10 minutes at ambient temperature.2 mL of this transfection mixture was added to each dish containing HEK293T cells as prepared above followed by a gentle mixing of 4-5 horizontal rotations. The dishes were incubated at 37 °C and 5% CO2 for 24 h. The dishes were removed from the incubator, the medium was aspirated and the cells were scraped off using cell scrapers in ice-cold 1x PBS (5 mL/dish, Thermo Fisher Scientific 10010023). The collected cells were centrifuged at 300 g for 5 minutes at 4 °C. The supernatant was aspirated and the pellet was frozen at -80 °C until needed. The cell pellet from 30 dishes was dissolved in 30 mL 1x PBS supplemented with 4 tablets of Complete, Mini EDTA-free protease inhibitor cocktail at 4 °C. This mixture was sonicated on ice for 10 minutes at 50% amplitude with a 1 second on/1 second off interval using a Model 120 sonicator (Thermo Fisher Scientific, FB120110). The lysate was centrifuged at 16000 g for 10 minutes at 4 °C.

Row | Structure (SMILES) | IC50
1 | CC1CC2CC(C1)N2C(=O)Nc1ccc(Cl)c([C@@H]2CC[C@H]2n2ccnn2)c1 (relative stereo) [WO2025054369, Example 27] | < 1000 nM
2 | CC1CC2CC(C1)N2C(=O)Nc1ccc(Cl)c([C@@H]2CC[C@@H]2n2ccnn2)c1 (relative stereo) [WO2025054369, Example 28] | < 1000 nM
3 | CC1CC2CC(C1)N2C(=O)Nc1ccc(Cl)c([C@@H]2CC[C@H]2n2nccn2)c1 (relative stereo) [WO2025054369, Example 29] | 5500 nM
4 | CC1CC2CC(C1)N2C(=O)Nc1ccc(Cl)c([C@@H]2CC[C@@H]2n2nccn2)c1 (relative stereo) [WO2025054369, Example 30] | < 1000 nM
5 | CC1CC2CC(C1)N2C(=O)Nc1ccc(Cl)c([C@@H]2CC[C@H]2n2cnnc2)c1 (relative stereo) [WO2025054369, Example 31] | < 1000 nM
6 | N#C[C@H]1CC[C@H]1c1cc(NC(=O)N2C3CCC2CC(C(F)(F)F)C3)ccc1Cl (relative stereo; form 1) [WO2025054369, Example 44] | < 1000 nM
7 | N#C[C@H]1CC[C@H]1c1cc(NC(=O)N2C3CCC2CC(C(F)(F)F)C3)ccc1Cl (relative stereo; form 2) [WO2025054369, Example 45] | 5500 nM
8 | Cc1nnc(C23CC(C)CC(C2)N3C(=O)Nc2ccc(Cl)c(C3CCC3)c2)o1 (stereo unspecified) [WO2025054369, Example 1] | < 1000 nM
9 | Cc1nnc(C23CC(C)CC(C2)N3C(=O)Nc2ccc(C(F)(F)F)c(C3CCC3)c2)o1 (stereo unspecified) [WO2025054369, Example 2] | < 1000 nM
10 | Cc1nnc(C23CC(C)CC(C2)N3C(=O)Nc2ccc(Cl)c([C@@H]3CC[C@@H]3C#N)c2)o1 (stereo partly specified) [WO2025054369, Example 3] | < 1000 nM
11 | Cc1nnc(C23CC(C)CC(C2)N3C(=O)Nc2ccc(Cl)c([C@H]3CC[C@H]3C#N)c2)o1 (stereo partly specified) [WO2025054369, Example 4] | < 1000 nM
12 | Cc1ccc(NC(=O)N2C3CC(C)CC2C3)cc1C(C)C#N (stereo unspecified) [WO2025054369, Example 5] | < 1000 nM
13 | Cc1ccc(NC(=O)N2C3CC(C)CC2C3)cc1C1CCC1C#N (stereo unspecified) [WO2025054369, Example 6] | < 1000 nM
14 | Cc1ccc(NC(=O)N2C3CC(C)CC2C3)cc1[C@@H]1CC[C@@H]1C#N (stereo partly specified) [WO2025054369, Example 7] | < 1000 nM
15 | Cc1ccc(NC(=O)N2C3CC(C)CC2C3)cc1[C@H]1CC[C@H]1C#N (stereo partly specified) [WO2025054369, Example 8] | < 1000 nM
16 | CC1CC2CC(C1)N2C(=O)Nc1ccc(Cl)c([C@@H]2CC[C@@H]2C#N)c1 (stereo partly specified) [WO2025054369, Example 9] | < 1000 nM
17 | CC1CC2CC(C1)N2C(=O)Nc1ccc(Cl)c([C@H]2CC[C@H]2C#N)c1 (stereo partly specified) [WO2025054369, Example 10] | < 1000 nM
18 | Cc1ccc(NC(=O)CC2CCC2)cc1C1CCC1 [WO2025054369, Example 11] | > 10000 nM
19 | Cc1ccc(NC(=O)N2C3CCCC2C3)cc1C1CCC1 [WO2025054369, Example 12] | 5500 nM
20 | Cc1ccc(NC(=O)N2C3CCCC2C3)cc1CC1CC1 [WO2025054369, Example 13] | 5500 nM
21 | Cc1ccc(NC(=O)N2C3CCCC2C3)cc1C1CC(=O)N(C)C1 (stereo unspecified) [WO2025054369, Example 14] | 5500 nM
22 | Cc1ccc(NC(=O)N2C3CCCC2C3)cc1C1CN(C)C1 [WO2025054369, Example 15] | 5500 nM
23 | Cc1nnc(C23CC(C)CC(C2)N3C(=O)Nc2ccc(Cl)c([C@@H]3C[C@@H]3C#N)c2)o1 (stereo partly specified) [WO2025054369, Example 16] | 5500 nM
24 | Cc1nnc(C23CC(C)CC(C2)N3C(=O)Nc2ccc(Cl)c([C@H]3C[C@H]3C#N)c2)o1 (stereo partly specified) [WO2025054369, Example 17] | < 1000 nM
25 | CC1CC2CC(C1)N2C(=O)Nc1ccc(Cl)c(C2CCC2)c1 (stereo unspecified) [WO2025054369, Example 18] | < 1000 nM
26 | CC1CC2CC(C1)N2C(=O)Nc1ccc(Cl)c(C2(F)CCC2)c1 (stereo unspecified) [WO2025054369, Example 19] | < 1000 nM

Row | Structure (SMILES) | IC50
27 | CC1CC2CC(C1)N2C(=O)Nc1ccc(Cl)c(C23CC(C2)C3)c1 (stereo unspecified) [WO2025054369, Example 20] | < 1000 nM
28 | Cc1ccc(NC(=O)CC2CCC2)cc1C1CC1 [WO2025054369, Example 21] | > 10000 nM
29 | Cc1ccc(NC(=O)N2C3CCCC2C3)cc1C1CC1 [WO2025054369, Example 22] | 5500 nM
30 | Cc1ccc(NC(=O)N2C3CC(C)CC2C3)cc1C12CC(F)(C1)C2 (stereo unspecified) [WO2025054369, Example 23] | < 1000 nM
31 | Cc1ccc(NC(=O)N2C3CCCC2C3)cc1C12CC(C)(C1)C2 [WO2025054369, Example 24] | < 1000 nM
32 | Cc1nnc(C23CC(C)CC(C2)N3C(=O)Nc2ccc(C(F)(F)F)c(C3CC(F)(F)C3)c2)o1 (stereo unspecified) [WO2025054369, Example 25] | < 1000 nM
33 | Cc1ccc(NC(=O)N2C3CCCC2C3)cc1C1CN(CC(F)(F)F)C1 [WO2025054369, Example 26] | 5500 nM
34 | N#C[C@H]1CC[C@H]1c1cc(NC(=O)N2C3CC2CC(C(F)(F)F)C3)ccc1Cl (stereo partly specified) [WO2025054369, Example 32] | < 1000 nM
35 | N#C[C@@H]1CC[C@@H]1c1cc(NC(=O)N2C3CC2CC(C(F)(F)F)C3)ccc1Cl (stereo partly specified) [WO2025054369, Example 33] | < 1000 nM
36 | CC1CC2CC(C1)N2C(=O)Nc1cc(F)c(Cl)c([C@@H]2CC[C@@H]2C#N)c1 (stereo partly specified) [WO2025054369, Example 34] | < 1000 nM
37 | CC1CC2CC(C1)N2C(=O)Nc1cc(F)c(Cl)c([C@H]2CC[C@H]2C#N)c1 (stereo partly specified) [WO2025054369, Example 35] | < 1000 nM
38 | CC1CC2CC(C1)N2C(=O)Nc1ccc(Cl)c([C@H]2C[C@H](O)C2)c1 (stereo partly specified) [WO2025054369, Example 36] | < 1000 nM
39 | CC1CC2CC(C1)N2C(=O)Nc1ccc(Cl)c([C@H]2C[C@@H](O)C2)c1 (stereo partly specified) [WO2025054369, Example 37] | < 1000 nM
40 | CC1CC2CC(C1)N2C(=O)Nc1ccc(Cl)c(C2CC(C)(O)C2)c1 (stereo unspecified) [WO2025054369, Example 38] | < 1000 nM
41 | CC1CC2CC(C1)N2C(=O)Nc1ccc(Cl)c([C@@H]2CC[C@@H]2C(F)F)c1 (stereo partly specified) [WO2025054369, Example 40] | < 1000 nM
42 | CC1CC2CC(C1)N2C(=O)Nc1ccc(Cl)c([C@H]2CC[C@H]2C(F)F)c1 (stereo partly specified) [WO2025054369, Example 41] | 5500 nM
43 | O=C(Nc1ccc(Cl)c([C@H]2C[C@H](O)C2)c1)N1C2CC1CC(C(F)(F)F)C2 (stereo partly specified) [WO2025054369, Example 42] | < 1000 nM
44 | O=C(Nc1ccc(Cl)c([C@H]2C[C@@H](O)C2)c1)N1C2CC1CC(C(F)(F)F)C2 (stereo partly specified) [WO2025054369, Example 43] | < 1000 nM
45 | CC1CC2CC(C1)N2C(=O)Nc1ccc(Cl)c([C@@H]2CC[C@]2(C)O)c1 (stereo partly specified) [WO2025054369, Example 46] | < 1000 nM
46 | CC1CC2CC(C1)N2C(=O)Nc1ccc(Cl)c([C@H]2CC[C@@]2(C)O)c1 (stereo partly specified) [WO2025054369, Example 47] | > 10000 nM
47 | CC1CC2CC(C1)N2C(=O)Nc1ccc(Cl)c([C@H]2C[C@H](F)C2)c1 (stereo partly specified) [WO2025054369, Example 48] | < 1000 nM
48 | CC1CC2CC(C1)N2C(=O)Nc1ccc(Cl)c([C@H]2C[C@@H](F)C2)c1 (stereo partly specified) [WO2025054369, Example 49] | < 1000 nM
49 | CC1CC2CC(C1)N2C(=O)Nc1ccc(Cl)c([C@H]2CC[C@@H]2C(F)F)c1 (stereo partly specified) [WO2025054369, Example 50] | < 1000 nM
50 | CC1CC2CC(C1)N2C(=O)Nc1ccc(Cl)c([C@@H]2CC[C@H]2C(F)F)c1 (stereo partly specified) [WO2025054369, Example 51] | < 1000 nM
51 | N#C[C@H]1CC[C@H]1c1cc(NC(=O)N2C3CC2CC(C(F)(F)F)C3)ccc1C(F)(F)F (stereo partly specified) [WO2025054369, Example 52] | 5500 nM
